Measurements as given in paper PMC6253839, “Screening of Agelasine D and Analogs for Inhibitory Activity against Pathogenic Protozoa; Identification of Hits for Visceral Leishmaniasis and Chagas Disease” (Molecules, 2009).
Converted amounts (≈) assume the structure as drawn. “Also recorded” adds a separate entry of the source. Like-named read-outs stand apart in the source and are kept apart here.

Legend:
[1] = tested on: Mycobacterium tuberculosis; settings: cited from earlier work
[2] = tested on: Leishmania infantum amastigotes (MHOM/ET 67); experiment: Antileishmanial activity, amastigotes in primary peritoneal mouse macrophages; format: cell-based; settings: for IC50: Leishmania infantum, Macrophage, 120 h, read-out: L. infantum IC50
Description: Leishmania infantum amastigotes (MHOM/ET 67) were collected from an infected donor hamster and used to infect primary peritoneal mouse macrophages. To determine in vitro antileishmanial activity, 3×10^4 macrophages were seeded in each well of a 96-well plate. After 48 h outgrowth, 5×10^4 amastigotes/well were added and incubated for 2 h at 37 °C. […] Parasite burdens were determined microscopically after Giemsa staining and expressed as a percentage of the blank controls without compound.

[3] = tested on: T. cruzi Tulahuen CL2 strain (nifurtimox-sensitive); experiment: Antitrypanosomal activity, T. cruzi on MRC-5 cells, β-galactosidase readout; format: cell-based, Trypanosoma cruzi; settings: for IC50: Trypanosoma cruzi, TULAHUEN
Description: To determine in vitro anti-trypanosomal activity, 4×10^3 MRC-5 cells and 4×10^4 parasites were added to each well of test plate with compound. […] The color reaction was read at 540 nm and absorbance values were expressed as a percentage of the blank controls.

[4] = Cytotoxicity assay, resazurin; format: cell-based; settings: human
Description: Cell viability was determined after addition of resazurin.

[5] = tested on: P. falciparum GHA-strain (chloroquine-suceptible); experiment: Antiplasmodial activity, Malstat method; format: cell-based, Plasmodium falciparum; settings: for IC50: Plasmodium falciparum, 72 h, read-out: P. falciparum IC50
Escherichia coli = tested on: Escherichia coli; design: method as in PMID 17442577; settings: previous studies; cited from earlier work
Staphyllococcus aureus = tested on: Staphyllococcus aureus; design: method as in PMID 17442577; settings: previous studies; cited from earlier work
[6] = intracellular amastigotes, TDR hit criterion <0.5 μg/mL
[7] = MRC5, 168 h, read-out: T. cruzi IC50
[8] = MRC-5 SV2 cells (human fetal lung fibroblasts)
[9] = GHA-strain, TDR hit criterion <0.2 μg/mL

Row | SMILES | IC50 [2, 6] [µg/mL] | IC50 [3, 7] [µg/mL] | IC50 at 72 h [4, 8] [µg/mL] | IC50 [5, 9] [µg/mL] | other results
1 | CO/N=c1\[n-]cnc2c1[n+](C/C=C(\C)CC/C=C(\C)CC/C=C(\C)CCC=C(C)C)cn2C [Compound 1d] | 0.093 (≈ 0.206 µM) | 0.11 (≈ 0.244 µM) | 2 (≈ 4.43 µM) | 0.1 (≈ 0.221 µM) | antibacterial activity against M. tuberculosis, in words ([1]; previously shown): inhibition of Mycobacterium tuberculosis; hit for leishmaniasis according to TDR ([2]; criterion IC50 <0.5 μg/mL and SI >20): meets the definition of a hit; also recorded: identified as hits; IC50 ([3]; MRC5, read-out: T. cruzi IC50): < 1 µg/mL; antimalaria hit according to TDR ([5]; criterion IC50 <0.2 μg/mL with SI >20): met this requirement
2 | CC(C)=CCC/C(C)=C/CC/C(C)=C/CC/C(C)=C/C[n+]1cnc2c(ncn2C)c1N [Compound 7] | > 32 | 11 | 16 | 10 | –
3 | CC(C)=CCC/C(C)=C\CC/C(C)=C/C[n+]1cn(C)c2nc[n-]/c(=N\OCc3ccccc3)c21 [Compound 1c] | 0.99 (≈ 2.15 µM) | < 0.11 | 0.31 (≈ 0.674 µM) | 0.74 (≈ 1.61 µM) | –
4 | C=C1CC[C@H]2C(C)(C)CCC[C@]2(C)[C@H]1CC/C(C)=C/Cn1c[n+](C)c2nc[n-]/c(=N\OC)c21 [Compound 1n] | 0.63 (≈ 1.39 µM) | 0.49 (≈ 1.08 µM) | 4.5 (≈ 9.96 µM) | 0.29 (≈ 0.642 µM) | –
5 | C/C(=C\C[n+]1cn(C)c2ncnc(N)c21)CCCC(C)CCCC(C)CCCC(C)C (stereo not shown) [Compound 2b] | – | < 0.12 | – | – | IC50 [2]: 2.9 µg/mL; IC50 at 72 h ([4]; read-out: MRC-5 IC50): 0.75 µg/mL; IC50 [5]: 0.96 µg/mL
6 | CO/N=c1\[n-]cnc2c1[n+](C/C=C(\C)CC/C=C(\C)CC/C=C(\C)CCC=C(C)C)cn2CCC#N [Compound 1g] | 12 (≈ 24.5 µM) | 0.81 (≈ 1.65 µM) | 0.49 (≈ 0.999 µM) | 5.3 (≈ 10.8 µM) | –
7 | CC(C)=CCC/C(C)=C/CC/C(C)=C/CC/C(C)=C/C[n+]1cn(CCC#N)c2nc[n-]/c(=N\OCc3ccccc3)c21 [Compound 1h] | 18 (≈ 31.8 µM) | 3 (≈ 5.29 µM) | 3.5 (≈ 6.18 µM) | 10 (≈ 17.6 µM) | –
8 | CCCCCCCCCCCCCCCCOP(=O)([O-])OCC[N+](C)(C)C [Miltefosine, reference compound] | 0.24 (≈ 0.589 µM) | – | – | – | –
9 | CC1=C(CC/C(C)=C/CC/C(C)=C/C[n+]2cn(C)c3nc[n-]/c(=N\OCc4ccccc4)c32)C(C)(C)CCC1 [Compound 1l] | 12 (≈ 22.7 µM) | 0.14 (≈ 0.265 µM) | 0.53 (≈ 1 µM) | 1.3 (≈ 2.46 µM) | –
10 | CC(C)=CCC/C(C)=C/CC/C(C)=C/CC/C(C)=C/Cn1cnc2ncnc(N)c21 [Compound 4a] | > 26 | 2.3 (≈ 5.64 µM) | 2.6 (≈ 6.38 µM) | 9.4 (≈ 23.1 µM) | –
11 | CC1=C(CC/C(C)=C/CC/C(C)=C/C[n+]2cn(C)c3nc[n-]/c(=N\OC(C)(C)C)c32)C(C)(C)CCC1 [Compound 1m] | 0.99 (≈ 2.01 µM) | < 0.12 | 0.48 (≈ 0.972 µM) | 0.69 (≈ 1.4 µM) | –
12 | CC(C)=CCC/C(C)=C\CC/C(C)=C/C[n+]1cn(C)c2ncnc(N)c21 [Compound 2a] | > 26 | 0.43 | > 26 | 2.9 | antibacterial activity against E. coli, in words (Escherichia coli): virtually inactive; antibacterial activity against M. tuberculosis, in words ([1]; previous studies): virtually inactive; hit for Chagas disease according to TDR [3]: classified as hits; also recorded: identified as hits; antibacterial activity against S. aureus, in words (Staphyllococcus aureus): virtually inactive
13 | CO/N=c1\[n-]cnc2c1n(C/C=C(\C)CCC=C(C)C)c[n+]2C [Compound 1a] | 7.5 (≈ 23.8 µM) | < 0.079 | 0.86 (≈ 2.73 µM) | 0.46 (≈ 1.46 µM) | –
14 | CO/N=c1\[n-]cnc2c1[n+](C/C=C(\C)CC/C=C(\C)CC/C=C(\C)CCC=C(C)C)cn2C(c1ccccc1)c1ccccc1 [Compound 1i] | 1.2 (≈ 1.99 µM) | 1.3 (≈ 2.15 µM) | 0.92 (≈ 1.52 µM) | 3.5 (≈ 5.8 µM) | –
